Experimental data: paper PMC9346113, “Therapeutic impact of BET inhibitor BI 894999 treatment: backtranslation from the clinic” (British Journal of Cancer, 2022)
Where two headings read alike, the source gives them in different places.

Experiments:
Ki67 = test: IHC of 10326 xenograft tumours, Ki67; format: in vivo, mice; settings: day 21, BI 894999 monotherapy 2 mg/kg
Protocol: Immunohistochemistry was performed on formalin-fixed, paraffin-embedded tumour tissue using antibodies against human Ki67(Cell Signaling #9027, 1:400 dilution), anti-human mitochondria (Abcam ab92824, 1:1000 dilution) and against endogenous NUT protein (Cell Signaling #3625, 1:50 dilution) used to detect NUT fusion proteins. Digital images of whole tissue sections were acquired using a Leica SCN400 histology scanner (Leica Microsystems). Ki67-positive index was evaluated using Halo Software V. 3.2 (Indica lab). Regions of interest (ROIs) within the tissue sections were first identified using Halo Software via machine learning technology across pathological samples and tissue control, within these ROIs, nuclei were detected and classified as positive or negative based on IHC staining thresholds.
Quantification of Ki67 staining in NC 10326 tumor sections after treatment with BI 894999, CCS1477, or the combination thereof.

14169 BRD4-NUT = test: Cell proliferation assay (Alamar readout), 14169; format: cell-based, human; settings: Homo sapiens, 96h, read-out: geomean GI50
Protocol: (§1) The NUT Carcinoma cell line Ty-82 was purchased from JCRB Japan No. 1330 and cultivated in RPMI 1640 supplemented with 10% fetal calf serum (FCS). The NC cell lines 10–15, 14169 and 10326 were in-licensed from Christopher French, Brigham & Womens Hospital, Boston, and were cultivated in DMEM supplemented with glutamax and 10% FCS.
(§2) Viability assays were performed on 96-well flat-bottom microtiter plates and incubated with Alamar Blue solution (Invitrogen, Carlsbad, US-CA). The effects of drug combinations were analysed using the Bliss Independence Model.
(§3) Dose response curves (96h cell proliferation assay - Alamar readout) on four NC cell lines with BET inhibitor BI 894999. Yellow bar: readout t zero (before adding of compound). Green bar: DMSO control (max proliferation).
(§4) Dose response curves (96h cell proliferation assay - Alamar readout) on four NC cell lines with multiple BET inhibitors.

10326 BRD3-NUT = test: Cell proliferation assay (Alamar readout), 10326; format: cell-based, human; settings: Homo sapiens, 96h, read-out: geomean GI50
Protocol: as §1, §2, §3, §4

Ty-82 BRD4-NUT = test: Cell proliferation assay (Alamar readout), Ty-82; format: cell-based, human; settings: Homo sapiens, TY82, 96h, read-out: geomean GI50
Protocol: as §1, §2, §3, §4

[1] = Plasma pharmacokinetics in patients (NCT02516553); format: in vivo
Protocol: Schedule B (NCT02516553): daily oral treatment from Day 1 to Day 14 at 2.5 mg/day followed by a week-off in 3-week cycles. Schedule C (NCT02516553): one week-on, one week-off treatment, repeated every two weeks in 4-week cycles with, at each treatment week, a loading dose (6 mg) on Day 1 followed by a maintenance dose (3 mg per day) on the following 6 days.

CNc1nc(-c2nc3ccc(N4CCN(C)CC4)cc3n2Cc2ccccc2)cn2c(C)nnc12 [BI 894999]
cell proliferation as assessed by Ki67 levels (Ki67): reduced cell proliferation | GI50 (14169 BRD4-NUT): 0.9 nM | GI50 (10326 BRD3-NUT): 1.2 nM | GI50 (Ty-82 BRD4-NUT): 2.6 nM | Cmax ([1]; Schedule C, 6 mg loading/3 mg maintenance, Day 1, 19 patients, read-out: maximal plasma concentration (mean Cmax)): ~20 nM | Cmax ([1]; human, plasma, oral, 2.5 mg, Schedule B, 2.5 mg daily, Day 1, 55 patients, read-out: maximum plasma concentration (mean Cmax)): 5 nM | Cmax ([1]; human, plasma, oral, 6 mg, Schedule C, 6 mg loading/3 mg maintenance, Day 1, 19 patients, read-out: maximal plasma concentration (mean Cmax)): 19 nM
